Reference: ChEMBL document CHEMBL1138044, “4-amido-2-aryl-1,2,4-triazolo[4,3-a]quinoxalin-1-ones as new potent and selective human A3 adenosine receptor antagonists. synthesis, pharmacological evaluation, and ligand-receptor modeling studies” (J Med Chem, 2006)

Tests used:
Adenosine receptor A3 [1] = target: T1, Adenosine receptor A3 (Homo sapiens, UniProt P0DMS8); assay: Antagonist activity against Cl-IB-MECA inhibited cAMP level in CHO cells transfected with human A3 receptor; type: functional, cell-based
T1 sequence (P0DMS8 whole entry): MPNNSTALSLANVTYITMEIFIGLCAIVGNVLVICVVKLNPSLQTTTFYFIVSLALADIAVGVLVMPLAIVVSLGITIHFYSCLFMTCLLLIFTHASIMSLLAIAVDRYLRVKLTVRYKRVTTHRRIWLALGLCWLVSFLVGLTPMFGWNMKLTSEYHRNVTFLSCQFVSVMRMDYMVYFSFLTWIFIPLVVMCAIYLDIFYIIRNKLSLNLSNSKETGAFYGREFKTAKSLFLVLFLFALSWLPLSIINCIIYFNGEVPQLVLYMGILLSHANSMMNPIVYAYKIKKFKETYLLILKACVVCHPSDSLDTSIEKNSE

[2] = target: T2, Adenosine receptor A1 (Homo sapiens) (UniProt P30542); assay: Inhibition of [3H]DPCPX binding to human adenosine A1 receptor at 10 uM
T2 sequence (whole entry): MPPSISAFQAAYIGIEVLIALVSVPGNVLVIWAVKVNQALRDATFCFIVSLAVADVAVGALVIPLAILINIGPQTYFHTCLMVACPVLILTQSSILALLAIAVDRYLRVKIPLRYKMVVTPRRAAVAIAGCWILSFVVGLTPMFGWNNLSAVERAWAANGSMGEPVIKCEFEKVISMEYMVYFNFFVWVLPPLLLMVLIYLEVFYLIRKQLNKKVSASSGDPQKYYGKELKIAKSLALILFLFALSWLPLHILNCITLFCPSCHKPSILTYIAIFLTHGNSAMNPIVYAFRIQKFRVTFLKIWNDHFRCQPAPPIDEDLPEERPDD

[3] = target: T3, Adenosine receptor A2b (Homo sapiens) (UniProt P29275); assay: Inhibition of NECA-stimulated cAMP level in CHO cells transfected with human adenosine A2B receptor at 1 uM; type: functional, cell-based
T3 sequence (whole entry): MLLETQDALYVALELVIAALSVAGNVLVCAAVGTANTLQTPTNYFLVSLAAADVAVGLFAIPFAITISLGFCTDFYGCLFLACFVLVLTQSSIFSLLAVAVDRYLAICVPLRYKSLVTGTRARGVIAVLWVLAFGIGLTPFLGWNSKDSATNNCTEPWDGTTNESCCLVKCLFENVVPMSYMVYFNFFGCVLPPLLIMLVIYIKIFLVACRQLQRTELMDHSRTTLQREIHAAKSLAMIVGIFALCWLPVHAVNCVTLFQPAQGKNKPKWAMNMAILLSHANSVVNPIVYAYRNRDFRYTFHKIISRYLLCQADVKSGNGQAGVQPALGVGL

Adenosine receptor A1 [4] = target: T4, Adenosine receptor A1 (Bos taurus, UniProt P28190); assay: Displacement of [3H]DPCPX from adenosine A1 receptor in bovine brain membranes; type: cell membranes
T4 sequence (P28190 whole entry): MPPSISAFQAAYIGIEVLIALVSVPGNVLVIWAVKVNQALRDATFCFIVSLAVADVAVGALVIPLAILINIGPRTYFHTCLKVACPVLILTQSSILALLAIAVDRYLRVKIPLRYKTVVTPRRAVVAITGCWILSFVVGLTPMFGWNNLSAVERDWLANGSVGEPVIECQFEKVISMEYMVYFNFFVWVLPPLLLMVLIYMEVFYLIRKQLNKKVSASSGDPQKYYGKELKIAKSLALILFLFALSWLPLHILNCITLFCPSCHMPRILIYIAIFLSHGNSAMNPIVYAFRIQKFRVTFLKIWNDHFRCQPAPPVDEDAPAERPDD

Adenosine receptor A2b = target: T5, Adenosine receptor A2b (Homo sapiens, UniProt P29275); assay: Inhibition of NECA-stimulated cAMP level in CHO cells transfected with human adenosine A2B receptor; type: functional, cell-based
T5 sequence (P29275 whole entry): T3 sequence (whole entry)

Adenosine receptor A3 [5] = target: T1, Adenosine receptor A3; assay: Displacement of [125I]AB-MECA from human adenosine A3 receptor expressed in CHO cells; type: cell-based
Adenosine receptor A2a [6] = target: T6, Adenosine receptor A2a (Homo sapiens, UniProt P29274); assay: Inhibition of [3H]NECA binding to human adenosine A2A receptor at 10 uM
[7] = tested on: Adenosine receptor A2a (Bos taurus); assay: Inhibition of [3H]CGS 21680 binding to adenosine A2A receptor in bovine striatal membranes at 10 uM; details: Striatum, Membrane
Adenosine receptor A2a [8] = target: T6, Adenosine receptor A2a; assay: Displacement of [3H]NECA from human adenosine A2A receptor expressed in CHO cells; type: cell-based
Adenosine receptor A1 [9] = target: T7, Adenosine receptor A1 (Homo sapiens, UniProt P30542); assay: Displacement of [3H]DPCPX from human adenosine A1 receptor expressed in CHO cells; type: cell-based
T7 sequence (P30542 whole entry): T2 sequence (whole entry)

[10] = target: T8, Adenosine receptor A1 (Bos taurus) (UniProt P28190); assay: Inhibition of [3H]DPCPX binding to adenosine A1 receptor in bovine brain membranes at 10 uM; type: cell membranes
T8 sequence (whole entry): T4 sequence (P28190 whole entry)

[11] = target: T9, Adenosine receptor A3 (Homo sapiens) (UniProt P0DMS8); assay: Inhibition of [125I]AB-MECA binding to human adenosine A3 receptor at 1 uM
T9 sequence (whole entry): T1 sequence (P0DMS8 whole entry)

[12] = target: Adenosine receptor A2a (Bos taurus); assay: Displacement of [3H]CGS 21680 from adenosine A2A receptor in bovine striatal membranes

T6 sequence (P29274 whole entry): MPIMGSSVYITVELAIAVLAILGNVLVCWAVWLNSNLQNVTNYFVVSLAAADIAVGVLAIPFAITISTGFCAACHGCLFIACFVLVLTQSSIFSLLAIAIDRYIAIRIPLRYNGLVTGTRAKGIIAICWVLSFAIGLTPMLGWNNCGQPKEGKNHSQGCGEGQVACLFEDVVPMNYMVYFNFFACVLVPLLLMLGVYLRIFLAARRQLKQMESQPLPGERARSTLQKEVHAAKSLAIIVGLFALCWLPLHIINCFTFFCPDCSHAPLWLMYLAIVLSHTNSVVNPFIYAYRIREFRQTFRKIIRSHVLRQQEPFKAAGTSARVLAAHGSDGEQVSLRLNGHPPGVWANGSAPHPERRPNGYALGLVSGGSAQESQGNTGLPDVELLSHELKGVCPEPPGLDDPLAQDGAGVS

inhibition [2]	Ki (Adenosine receptor A1 [4])	Ki (Adenosine receptor A3 [5])	inhibition (Adenosine receptor A2a [6])	inhibition [7]	SMILES	other results
25%	7.2 nM	44 nM	–	–	COc1ccc(-n2nc3c(NC(=O)C(c4ccccc4)c4ccccc4)nc4ccccc4n3c2=O)cc1	IC50 (Adenosine receptor A3 [1]): 215 nM; inhibition [3]: 37%; IC50 (Adenosine receptor A2b): > 1000 nM
32%	1 nM	48 nM	–	–	CC(=O)Nc1nc2c(N)cccc2n2c(=O)n(-c3ccccc3)nc12	–
11%	260 nM	–	2%	0%	COc1ccc(-n2nc3c(NC(=O)C(c4ccccc4)c4ccccc4)nc4c([N+](=O)[O-])cccc4n3c2=O)cc1	–
–	42 nM	22 nM	–	27.8%	Nc1cccc2c1nc(NC(=O)c1ccccc1)c1nn(-c3ccccc3)c(=O)n12	Ki (Adenosine receptor A2a [8]): 4850 nM; Ki (Adenosine receptor A1 [9]): 98 nM
–	–	–	–	0%	O=C(Nc1nc2ccccc2n2c(=O)n(-c3ccc([N+](=O)[O-])cc3)nc12)C(c1ccccc1)c1ccccc1	inhibition [10]: 30%; inhibition [11]: 13%
12%	3.9 nM	14.9 nM	49%	29.5%	O=C(Nc1nc2c([N+](=O)[O-])cccc2n2c(=O)n(-c3ccccc3)nc12)C(c1ccccc1)c1ccccc1	–
15%	–	22 nM	25%	0%	O=C(Nc1nc2c([N+](=O)[O-])cccc2n2c(=O)n(-c3ccccc3)nc12)c1ccccc1	inhibition [10]: 32%
–	–	–	–	0%	O=C(c1ccccc1)N(C(=O)c1ccccc1)c1nc2c([N+](=O)[O-])cccc2n2c(=O)n(-c3ccccc3)nc12	inhibition [10]: 39%; inhibition [11]: 27%
–	–	343 nM	–	–	COc1ccc(-n2nc3c(N(C(=O)c4ccccc4)C(=O)c4ccccc4)nc4c([N+](=O)[O-])cccc4n3c2=O)cc1	inhibition [10]: 20%
–	363 nM	5.5 nM	–	–	COc1ccc(-n2nc3c(NC(C)=O)nc4c(N)cccc4n3c2=O)cc1	Ki (Adenosine receptor A2a [8]): 1100 nM; Ki (Adenosine receptor A1 [9]): 2700 nM
–	–	–	–	–	O=C(Nc1nc2ccccc2n2c(=O)n(-c3ccccc3)nc12)c1ccccc1	Ki (Adenosine receptor A2a [8]): 88.2 nM; Ki (Adenosine receptor A1 [9]): 87.8 nM
–	10.2 nM	0.81 nM	58%	–	O=C(Nc1nc2ccccc2n2c(=O)n(-c3ccccc3)nc12)C(c1ccccc1)c1ccccc1	Ki [12]: 1160 nM; Ki (Adenosine receptor A1 [9]): 18.8 nM
1%	30 nM	5.2 nM	43%	–	O=C(c1ccccc1)N(C(=O)c1ccccc1)c1nc2ccccc2n2c(=O)n(-c3ccccc3)nc12	IC50 (Adenosine receptor A3 [1]): 28.3 nM; inhibition [3]: 15%; IC50 (Adenosine receptor A2b): > 1000 nM
45%	393 nM	1 nM	24%	–	COc1ccc(-n2nc3c(NC(=O)c4ccccc4)nc4c(N)cccc4n3c2=O)cc1	IC50 (Adenosine receptor A3 [1]): 8.6 nM; inhibition [3]: 17%; IC50 (Adenosine receptor A2b): > 1000 nM
–	6 nM	–	–	36%	CC(=O)Nc1nc2c([N+](=O)[O-])cccc2n2c(=O)n(-c3ccccc3)nc12	inhibition [11]: 18%
–	79 nM	1240 nM	–	36%	Nc1cccc2c1nc(N(C(=O)c1ccccc1)C(=O)c1ccccc1)c1nn(-c3ccccc3)c(=O)n12	–
–	–	–	–	7%	COc1ccc(-n2nc3c(NC(C)=O)nc4c([N+](=O)[O-])cccc4n3c2=O)cc1	inhibition [10]: 0%; inhibition [11]: 36%
–	–	–	22%	–	CC(=O)Nc1nc2ccccc2n2c(=O)n(-c3ccccc3)nc12	Ki (Adenosine receptor A1 [9]): 2000 nM
–	–	217 nM	–	15%	COc1ccc(-n2nc3c(NC(=O)c4ccccc4)nc4c([N+](=O)[O-])cccc4n3c2=O)cc1	inhibition [10]: 35%
37%	1010 nM	2.9 nM	–	23%	COc1ccc(-n2nc3c(NC(=O)c4ccccc4)nc4ccccc4n3c2=O)cc1	Ki (Adenosine receptor A2a [8]): 3580 nM
0%	77.5 nM	2.58 nM	31%	0%	COc1ccc(-n2nc3c(NC(=O)C(c4ccccc4)c4ccccc4)nc4c(N)cccc4n3c2=O)cc1	–
34%	245 nM	35.7 nM	6%	–	COc1ccc(-n2nc3c(NC(C)=O)nc4ccccc4n3c2=O)cc1	–
–	–	100 nM	–	26%	O=C(Nc1nc2ccccc2n2c(=O)n(-c3ccc([N+](=O)[O-])cc3)nc12)c1ccccc1	inhibition [10]: 55%
2.5%	1.6 nM	8.65 nM	–	12%	Nc1cccc2c1nc(NC(=O)C(c1ccccc1)c1ccccc1)c1nn(-c3ccccc3)c(=O)n12	Ki (Adenosine receptor A2a [8]): 627 nM
2%	175 nM	3.29 nM	26%	–	COc1ccc(-n2nc3c(N(C(=O)c4ccccc4)C(=O)c4ccccc4)nc4ccccc4n3c2=O)cc1	IC50 (Adenosine receptor A3 [1]): 31.8 nM; inhibition [3]: 13%; IC50 (Adenosine receptor A2b): > 1000 nM
